Source: PubChem BioAssay (NCI)
Where “and” joins values, the source holds several entries; their conditions need not be identical. Equal values may be shown once.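 Exposure lasted 48 hours, with cells grown in 96-well plates and compounds tested at five concentrations. TGI: total growth inhibition.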

Key:
Assay in all cases: NCI tumour cell line growth inhibition, 48 h
SK-MEL-2 melanoma = test system: SK-MEL-2 melanoma
UO-31 renal = test system: UO-31 renal
SN12C renal = test system: SN12C renal
A549 NSCLC = test system: A549 NSCLC
RXF 393 renal = test system: RXF 393 renal
EKVX NSCLC = test system: EKVX NSCLC
OVCAR-4 ovarian = test system: OVCAR-4 ovarian
PC-3 prostate = test system: PC-3 prostate
U251 CNS = test system: U251 CNS
OVCAR-3 ovarian = test system: OVCAR-3 ovarian
CAKI-1 renal = test system: CAKI-1 renal
KM12 colon = test system: KM12 colon
HCT-15 colon = test system: HCT-15 colon
A498 renal = test system: A498 renal
CCRF-CEM leukemia = test system: CCRF-CEM leukemia
ACHN renal = test system: ACHN renal
SK-MEL-5 melanoma = test system: SK-MEL-5 melanoma
HT29 colon = test system: HT29 colon
COLO 205 colon = test system: COLO 205 colon
NCI-H226 lung = test system: NCI-H226 lung

Compound	TGI (SK-MEL-2 melanoma)	TGI (UO-31 renal) [µM]	TGI (SN12C renal) [µM]	TGI (A549 NSCLC) [µM]	TGI (RXF 393 renal) [µM]	TGI (EKVX NSCLC)	TGI (OVCAR-4 ovarian) [µM]	TGI (PC-3 prostate) [µM]	TGI (U251 CNS)	TGI (OVCAR-3 ovarian)	TGI (CAKI-1 renal) [µM]	TGI (KM12 colon) [µM]	TGI (HCT-15 colon)	TGI (A498 renal) [µM]	TGI (CCRF-CEM leukemia)	TGI (ACHN renal) [µM]	TGI (SK-MEL-5 melanoma)	TGI (HT29 colon) [µM]	TGI (COLO 205 colon) [µM]	TGI (NCI-H226 lung) [µM]
CC(=O)OCCCCN1C(=O)CSc2ccccc21	> 100 µM	> 100	> 100	> 100	> 100	> 100 µM	> 100	> 100	> 100 µM	> 100 µM	> 100	> 100	> 100 µM	> 100	> 100 µM	> 100	> 100 µM	–	–	–
CC(C)CNCCc1ccccn1	> 100 µM	> 100	> 100	> 100	> 100	> 100 µM	> 100	> 100	> 100 µM	> 100 µM	> 100	> 100	> 100 µM	> 100	> 100 µM	> 100	> 100 µM	> 100	> 100	> 100
CCOc1ccccc1Nc1ccc(N)cc1S(=O)(=O)O	> 100 µM	> 100	> 100	> 100	> 100	> 100 µM	> 100	> 100	> 100 µM	> 100 µM	> 100	> 100	> 100 µM	> 100	–	> 100	> 100 µM	> 100	–	> 100
COc1ccc(C(=O)CCN(C)C)c2ccccc12	39.2 µM	44.2	49.1	> 100	41.9	55.8 µM	65.1	34	35.1 µM	36.9 µM	17.4	> 63.7	48.7 µM	> 88.8	11.8 µM	34	> 100 µM	66.7	36.6	> 100
O=Cc1ccccc1CCn1c(=O)c2cc3c(=O)n(CCc4ccccc4C=O)c(=O)c3cc2c1=O	> 100 µM	> 100	> 100	> 100	> 100	–	> 100	–	> 100 µM	> 100 µM	–	> 100	> 100 µM	> 100	> 100 µM	> 100	> 100 µM	> 100	–	> 100
CN1c2c(nc(N)[nH]c2=O)NCC1CCNc1ccc(C(=O)NC(CCC(=O)O)C(=O)O)cc1 (stereo not drawn)	3050 µM	2590	2350	2620	2490	2720 µM	2400	1750	2080 µM	2460 µM	1290	2220	3010 µM	2820	1000 µM	2000	2470 µM	1310	2750	3050
N#Cc1ccc([N+](=O)[O-])cc1NC(N)=S	> 100 µM	> 100	> 100	> 100	–	> 100 µM	–	–	> 100 µM	> 100 µM	> 100	> 100	> 100 µM	> 100	–	–	> 100 µM	> 100	> 100	–
CCOc1cc(C2SCC(=O)N2c2ccc3c(c2)Oc2c(Cl)c4c(c(Cl)c2=N3)Oc2cc(N3C(=O)CSC3c3ccc(O)c(OCC)c3)ccc2N=4)ccc1O (stereo not drawn)	93.9 µM	> 100	–	83.4	58.9	> 100 µM	> 100	> 100	> 100 µM	> 100 µM	> 100	> 100	> 100 µM	> 100	–	73.4	> 100 µM	> 100	–	66.2
COc1nc2ccc(CNc3ccc(C(=O)NC(CCC(=O)O)C(=O)O)cc3)cc2nc1OC (stereo not drawn)	> 100 µM	> 100	> 100	> 100	> 100	> 100 µM	> 100	> 100	> 100 µM	> 100 µM	–	> 100	> 100 µM	> 100	> 100 µM	> 100	> 100 µM	> 100	> 100	> 100
C=CCn1c(=O)c(Br)nn(CCOCP(=O)(OCC)OCC)c1=O	> 100 µM	> 100	> 100	> 100	> 100	> 100 µM	–	> 100	> 100 µM	> 100 µM	> 100	> 100	> 100 µM	> 100	> 100 µM	> 100	> 100 µM	–	> 100	> 100
COc1cc(NC(C)=O)ccc1C(=O)N/N=C/c1ccco1	> 100 µM	> 100	> 100	> 100	> 100	> 100 µM	> 100	> 100	–	> 100 µM	> 100	> 100	> 100 µM	> 100	> 100 µM	> 100	> 100 µM	> 100	> 100	–
CC[C@@H]1CSC(/C=C/C2OC3OC(C)(C)OC3C3OC(C)(C)OC23)=N1 (stereo partly drawn)	29.8 µM	22.8	23.9	49.6	9.59	25.6 µM	17.7	26	26.4 µM	16.7 µM	28.6	33.3	15.3 µM	–	–	21.2	20 µM	15.9	18	35.9
CC(ON1[C@](C)(c2ccccc2)CC[C@@]1(C)c1ccccc1)c1ccccc1 (stereo partly drawn)	50.5 µM	> 100	> 100	> 100	46	77.9 µM	> 100	> 100	> 100 µM	> 100 µM	> 100	> 100	> 100 µM	–	52.5 µM	–	> 100 µM	> 100	> 100	> 100
CC(C)C1=CC2=CC[C@@H]3[C@](C)(CCC[C@@]3(C)C(=O)O)[C@H]2CC1	> 78.9 µM	> 82.7	> 100	> 100	97.4	> 89.3 µM	> 100	–	> 100 µM	72.4 µM	> 100	> 100	> 87 µM	> 100	> 100 µM	> 100	> 94.2 µM	45.9	71.9	> 100
CC(=O)OCC1=CC2OC(=O)C3=COC(OC4OC(CO)C(O)C(O)C4O)C1C32 (stereo not drawn)	> 100 µM	> 100	> 100	> 100	–	> 100 µM	> 100	> 100	> 100 µM	> 100 µM	> 100	> 100	> 100 µM	> 100	> 100 µM	> 100	> 100 µM	> 100	> 100	> 100
O=C1CCCCN1	> 1120 µM	> 1120	> 1120	> 1120	> 1120	> 350 µM	> 1120	–	> 1120 µM	> 1120 µM	> 1120	> 1120	> 1120 µM	> 52	> 1120 µM	–	> 1120 µM	> 1120	> 1120	> 1120
CN(C)c1ccc(C2CC(=O)CC(c3ccc(N(C)C)cc3)C23C(=O)NC(=S)NC3=O)cc1 (stereo not drawn)	> 100 µM	> 100	> 100	> 100	> 100	> 100 µM	> 100	> 100	> 100 µM	> 100 µM	> 100	> 100	> 100 µM	> 100	> 100 µM	> 100	> 100 µM	> 100	> 100	> 100
O=C1/C(=C/C=C/c2ccccc2)N=C(c2ccccc2)N1c1ccc(S(=O)(=O)Nc2nccs2)cc1	86.6 µM	29.9	> 100	> 100	30.1	84.7 µM	> 100	> 100	59.3 µM	48.2 µM	> 100	> 100	> 100 µM	> 100	> 100 µM	34.5	54 µM	49.8	35.5	55.5
C1=CC=C2NCCc3cccc(c3)CCNC3=CC=CC=CC3=NCCCCCCN=C2C=C1	79.8 µM	89.1	> 100	> 100	32.4	> 100 µM	39	–	> 100 µM	99 µM	> 100	47.3	56.3 µM	–	> 100 µM	> 100	–	> 100	38.8	86
CC1(O)C2(c3ccccc3)CCC[N+]1(C)CC2 (stereo not drawn)	> 100 µM	> 100	> 100	–	> 100	–	> 100	> 100	> 100 µM	> 100 µM	> 100	> 100	> 100 µM	> 100	> 100 µM	–	> 100 µM	> 100	> 100	> 100
CC1=C[C@H]([C@H]2C=C(C)C(C(N)=O)=CN2Cc2c(Cl)cccc2Cl)N(Cc2c(Cl)cccc2Cl)C=C1C(N)=O	> 75 µM	> 75	> 75	> 75	> 75	> 75 µM	> 75	> 75	> 75 µM	> 75 µM	> 75	> 75	> 75 µM	> 75	> 75 µM	> 75	> 75 µM	> 75	> 75	> 75
CN(CCNC(=O)c1nn(-c2ccc(Cl)cc2Cl)c2c1Cc1ccccc1-2)CCNC(=O)c1nn(-c2ccc(Cl)cc2Cl)c2c1Cc1ccccc1-2	4.32 µM	7.81	20.4	28.8	4.54	> 100 µM	> 20	> 100	7.27 µM	17.4 µM	> 47.4	> 100	5.97 µM	12.9	7.82 µM	29.7	3.48 µM	5.55	3.43	–
CC[C@@]1(O)C[C@H](OC2CC(N(C)C)C(OC3CC(O)C(OC4CCC(=O)C(C)O4)C(C)O3)C(C)O2)c2c(cc3c(c2O)C(=O)c2c(O)cccc2C3=O)C1C(=O)OC (stereo partly drawn)	0.0581 µM and 0.425 µM	–	–	–	0.157	3.02 µM and 1.35 µM	0.117	1.47	2.72 µM and 9.24 µM	0.23 µM and 1.96 µM	4.09	–	1.2 µM and 3.13 µM	0.213	0.116 µM and 1.02 µM	2.15	0.189 µM and 0.478 µM	1.42	–	–
O=S(=O)(O)c1cc(S(=O)(=O)O)c2c(N=Nc3ccc(S(=O)(=O)O)c4ccccc34)c(O)ccc2c1	> 100 µM	> 100	> 100	> 100	> 100	> 100 µM	> 100	> 100	> 100 µM	> 100 µM	> 100	> 100	> 100 µM	–	> 100 µM	> 100	> 100 µM	> 100	> 100	> 100
[C-]#[N+]C(=C\c1ccc(O)cc1)/C(=C/c1ccc(O)cc1)[N+]#[C-]	–	–	6.37	> 69.9	4.46	> 100 µM	> 100	> 26.7	> 23.7 µM	> 100 µM	5.63	> 22.3	> 100 µM	> 24.8	6.55 µM	> 100	5.36 µM	> 73.8	56.6	> 22.7
